Results from patent publication US8440800B2, “Compositions for reducing cell adhesion to bubbles” (The Ohio State University Research Foundation, priority 2006, dated 2013).
Like-named read-outs stand apart in the source and are kept apart here.

What was measured:
[1] = CMC and static surface tension, maximum bubble pressure method; assay type: physicochemical; settings: for CMC: 37° C., CD CHO-A medium; for CMC SURFACE TENSION: cell culture medium at 37° C.
Experimental: (§1) The CMC depends on temperature and solution components. Given the significant number of components in typical cell culture media, the CMC of the comparative materials and the protective compositions were determined at 37° C. and in CD CHO-A medium using a SensaDyne bubble tensiometer PC500L (Chem-Dyne Research Corporation, Mesa, Ariz.), which uses the maximum bubble pressure method. The time between initial bubble formation and attainment of maximum bubble pressure, “surface age”, can be varied by changing the gas flow rate. When the static surface tensions were measured, the surface age were adjusted to approximate 1 s, which was enough for small molecule surfactants to migrate to the bubble surface and potentially reach equilibrium. When the dynamic surface tensions were measured, the surface age was varied in the range of about 0.1 to about 3.0 seconds.

[2] = Dynamic surface tension in cell culture medium; assay type: physicochemical; settings: 0.28 g/L
Experimental: as §1

[3] = test system: CHO K1 cells; test: Bubble-cell interactions, cell enrichment factor in foam (bubble collector, LDH); assay type: cell-based, Chinese Hamster
Experimental: An improved bubble collector device described by Ma et al. (2004) was used to quantitatively study cell entrapment in the foam. Specifically, this device can isolate bubble rupture events from foam formation vessel as well as maintain a plug-flow of bubbles from the foam layer into the bubble collection tube.
The cell concentration was determined using the lactate dehydrogenase (LDH) assay (CytoTox 96, Promega, Madison, Wis.). 9% (w/v) Triton X-100 solution was added to the cell suspension to be evaluated at a ratio of 1 to 10, and subsequently incubated at 37° C. for 45 minutes in order to lyse all the cells. A standard curve between LDH absorption and cell concentration by hemocytometer measurement was made for each set of experiments. The foam liquid volume was also measured by weighing the collect tube before and after experiments, assuming a liquid density of 1.0 g/ml.
For the bubble column studies, CHO K1 cells, grown in CD-CHO medium, were harvested during exponential phase of growth in spinner flasks. […]
Two spargers, a 22 gauge needle and a sintered glass (ACE glass, Vineland, N.J.) provided bubbles which produced, as expected, two different bubble sizes. The bubbles sizes were determined using a SCIMAX CCD digital camera (MVIA, Monaca, Pa.) and an infinity lens (ISCO Precision Optics GMBH, Germany) in a glass square column. […]

[4] = test system: Chinese Hamster Ovary cells (CHO) cell line K1; test: Cytotoxicity studies in T25 flasks (cell growth); assay type: cell-based; settings: T-25 flasks, 48 hours; concentrations of FIG. 6
Experimental: (§2) Chinese Hamster Ovary cells (CHO) cell line K1 (ATCC CCL-61) were used. The cells were initially cultured in Ham F-12 culture medium supplemented with 10% v/v fetal bovine serum (Sigma Aldrich Co., St. Louis, Mo.) in T-75 flasks. Then the cells were gradually adapted to chemically-defined medium (CD CHO-A, Invitrogen, Carlsbad, Calif.), which contain no PF-68. The cells were subcultured every 3-4 days and maintained at 37° C. incubator with 5% CO2. All the cultures were anchorage-dependent.
Various candidate materials from the 96 well plate assays were further investigated using T25 flasks. The concentration of the candidate materials were tested at discrete concentration, which depended on the specific material, but at the highest concentration exceeded 0.1 CMC. In all cases, tested, a concentration at which cell growth began to be inhibited was detected.
Additional protective compositions, Nonyl maltopyranoside (NM) and CYMAL®-4 (CM4), were purchased from Anatace Inc. (Maumee, Ohio). The inoculation was 3.0×10^5 cells/ml. After 48 hours, the cells were harvested by Accutase® (Innovative Cell Technologies Inc., San Diego, Calif.) and counted by a hemocytometer. Besides cell growth, the morphology of cells was also monitored by an inverted microscope (Nikon Ecllipse TE2000-U, Melville, N.Y.).

[5] = Bubble size for two spargers (CCD camera); assay type: physicochemical
Experimental: Two spargers, a 22 gauge needle and a sintered glass (ACE glass, Vineland, N.J.) provided bubbles which produced, as expected, two different bubble sizes. The bubbles sizes were determined using a SCIMAX CCD digital camera (MVIA, Monaca, Pa.) and an infinity lens (ISCO Precision Optics GMBH, Germany) in a glass square column. The cell enrichment factor can be defined as the ratio of total LDH concentration in the foam liquid to that in the bulk liquid after lysing all the cells.
Consistent with the techniques used by Ma et al. (2004), the effectiveness of the protective compositions with respect to cell-bubble interactions was evaluated using the bubble collection device. Prior to the studies with cells, the size of the bubbles generated using a sintered glass sparger and a 22 gauge needle and two different concentrations of the PF-68® comparative material and the protective composition NM were determined.

[6] = test system: Chinese Hamster Ovary cells (CHO) cell line K1; test: Fluorescent cytotoxicity screening, 96-well plates, calcein AM; assay type: cell-based
Experimental: as §2
The materials were compared at the same concentration relative to the specific surfactants critical micelle concentration, CMC, i.e., 0.01 CMC or 0.1 CMC. In order to minimize the effect of potential adsorption during filter sterilization, the concentrated material solutions were applied, and then diluted to desired concentration at time of use.
Black, clear-bottom 96-well plates (Fisher Scientific, Hampton, N.H.) were used in the screening experiments. In each well, 150 μl cell suspensions with a total cell number of approximately 10^4 were inoculated along with the test materials and subsequently cultured in a 37° C. incubator with 5% CO2. After 48 hours, the supernatant was carefully removed while the attached CHO cells remained at the bottom of the well. 100 μl of 4 μM calcein AM solution (Invitrogen, Carlsbad, Calif.), a fluorescence probe, was added to each well and incubated for one hour at 37° C. in order to quickly assess cell growth (Yang et al., 2002). Calcein AM is an esterase substrate which can be converted into a polar, fluorescent product by an intracellular enzyme. The fluorescence density was read by a Cytofluor 4000 (Applied Biosystems, Foster City, Calif.). Six replications were performed for each condition (type of material and concentration) and the positions on the 96 well plates were randomized. A reasonable linear relationship between cell number (less than 5×10^5 per well) and fluorescence density was confirmed before screening experiments; however, a control was created with each specific experiment.

[7] = test system: red blood cells; settings: cited from earlier work

SMILES	CMC [1] [mM]	HEAD GROUP SIZE [1] [Å^2]	CMC SURFACE TENSION [1] [DYN/CM]	further results
CCCCCCCCCCOS(=O)(=O)[O-].[Na+] [SDeS, Sodium decyl sulfate]	12.2	–	–	–
OC[C@H]1O[C@H](O[C@H]2[C@H](O)[C@@H](O)[C@H](OCCCCC3CCCCC3)O[C@@H]2CO)[C@H](O)[C@@H](O)[C@@H]1O [CM4, 4-Cyclohexyl-1-butyl-β-D-maltoside]	7.6	–	–	–
CCCCCCCCOS(=O)(=O)[O-].[Na+] [SOS, Sodium octyl sulfate]	85.6	–	–	–
CCCCCCCCCCO[C@@H]1O[C@H](CO)[C@@H](O[C@H]2O[C@H](CO)[C@@H](O)[C@H](O)[C@H]2O)[C@H](O)[C@H]1O [DM, n-Decyl-β-D-maltopyranoside]	1.8	42	38.9	Time to achieve equilibrium surface tension [2]: approximately 0.5 second; Effect on decrease of the enrichment factor ([3]; 0.28 g/L): less than PF-68® comparative material and the protective composition NM; Maximum concentration before inhibitory effects on cell growth was observed [4]: 0.28 g/L
CCCCCCCCCCCC[N+](C)(C)[O-] [DDAO, N,N-Dimethyldodecyl amine N-oxide]	2.0	–	–	–
CCCCCCCCCO[C@@H]1O[C@H](CO)[C@@H](O[C@H]2O[C@H](CO)[C@@H](O)[C@H](O)[C@H]2O)[C@H](O)[C@H]1O [NM, n-Nonyl-β-D-maltopyranoside]	6	59	40.1	Effect on cell enrichment factor ([3]; 1.0 g/L): slightly decreases the enrichments factor further; Median Diameter of bubbles ([5]; 22 gauge needle (large bubble), 0.6 g/L): 2.7 mm; Median Diameter of bubbles ([5]; 22 gauge needle (large bubble), 1.0 g/L): 2.5 mm; Median Diameter of bubbles ([5]; sintered glass sparger (microbubble), 0.6 g/L): 159 μm; Median Diameter of bubbles ([5]; sintered glass sparger (microbubble), 1.0 g/L): 157 μm; Maximum concentration before inhibitory effects on cell growth was observed [4]: 1.0 g/L
CCCCCCCCCC[N+](C)(C)[O-] [DDeAO, N,N-Dimethyldecyl amine N-oxide]	6.4	–	–	–
CCCCCCCCS[C@@H]1O[C@H](CO)[C@@H](O)[C@H](O)[C@H]1O [OT, n-Octyl-β-D-thioglucopyranoside]	11.0	–	–	–
CCCCCCCCCCCCOS(=O)(=O)[O-].[Na+] [SDS, Sodium dodecyl sulfate]	2.3	–	–	Cytotoxicity (inhibition of cell growth, fluorescence intensity) ([6]; 0.01 CMC and 0.1 CMC, 48 hours): inhibitory
CCCCCCCCCCCC[N+](C)(C)C.[Br-] [DTAB, Dodecyltrimethyl ammonium bromide]	7.0	–	–	Cytotoxicity (inhibition of cell growth, fluorescence intensity) ([6]; 0.01 CMC and 0.1 CMC, 48 hours): most toxic to cells; Microscopic observation of cells ([6]; at the lowest concentration): completely lysed the cells
CCCCCCCCCCO[C@@H]1O[C@H](CO)[C@@H](O)[C@H](O)[C@H]1O [DG, n-Decyl-β-D-glucopyranoside]	2.3	32	31.5	Toxicity relative to maltose head group analogue of same alkyl chain length [6]: more toxic
CCCCCCCCO[C@@H]1O[C@H](CO)[C@@H](O[C@H]2O[C@H](CO)[C@@H](O)[C@H](O)[C@H]2O)[C@H](O)[C@H]1O [OM, n-Octyl-β-D-maltopyranoside]	24.5	61	41.5	Toxicity to red blood cells [7]: less toxic to red blood cells than the OG comparative material; Maximum concentration before inhibitory effects on cell growth was observed [4]: 3.5 g/L
CCCCCCCCCCCCCCCC[N+](C)(C)C.[Br-] [CTAB, Hexadecyltrimethyl ammonium bromide]	1.3	–	–	Cytotoxicity (inhibition of cell growth, fluorescence intensity) [6]: most toxic to cells; Microscopic observation of cells [6]: completely lysed the cells
CCCCCCCCO[C@@H]1O[C@H](CO)[C@@H](O)[C@H](O)[C@H]1O [OG, n-Octyl-β-D-glucopyranoside]	27.1	40	32.5	Toxicity relative to maltose head group analogue of same alkyl chain length [6]: more toxic
